Experiment [1] has as its target T1, Calf DNA polymerase α (Bos taurus, UniProt A0AAA9TD94).
T1 construct: made in house
T1 sequence (A0AAA9TD94 1-1441): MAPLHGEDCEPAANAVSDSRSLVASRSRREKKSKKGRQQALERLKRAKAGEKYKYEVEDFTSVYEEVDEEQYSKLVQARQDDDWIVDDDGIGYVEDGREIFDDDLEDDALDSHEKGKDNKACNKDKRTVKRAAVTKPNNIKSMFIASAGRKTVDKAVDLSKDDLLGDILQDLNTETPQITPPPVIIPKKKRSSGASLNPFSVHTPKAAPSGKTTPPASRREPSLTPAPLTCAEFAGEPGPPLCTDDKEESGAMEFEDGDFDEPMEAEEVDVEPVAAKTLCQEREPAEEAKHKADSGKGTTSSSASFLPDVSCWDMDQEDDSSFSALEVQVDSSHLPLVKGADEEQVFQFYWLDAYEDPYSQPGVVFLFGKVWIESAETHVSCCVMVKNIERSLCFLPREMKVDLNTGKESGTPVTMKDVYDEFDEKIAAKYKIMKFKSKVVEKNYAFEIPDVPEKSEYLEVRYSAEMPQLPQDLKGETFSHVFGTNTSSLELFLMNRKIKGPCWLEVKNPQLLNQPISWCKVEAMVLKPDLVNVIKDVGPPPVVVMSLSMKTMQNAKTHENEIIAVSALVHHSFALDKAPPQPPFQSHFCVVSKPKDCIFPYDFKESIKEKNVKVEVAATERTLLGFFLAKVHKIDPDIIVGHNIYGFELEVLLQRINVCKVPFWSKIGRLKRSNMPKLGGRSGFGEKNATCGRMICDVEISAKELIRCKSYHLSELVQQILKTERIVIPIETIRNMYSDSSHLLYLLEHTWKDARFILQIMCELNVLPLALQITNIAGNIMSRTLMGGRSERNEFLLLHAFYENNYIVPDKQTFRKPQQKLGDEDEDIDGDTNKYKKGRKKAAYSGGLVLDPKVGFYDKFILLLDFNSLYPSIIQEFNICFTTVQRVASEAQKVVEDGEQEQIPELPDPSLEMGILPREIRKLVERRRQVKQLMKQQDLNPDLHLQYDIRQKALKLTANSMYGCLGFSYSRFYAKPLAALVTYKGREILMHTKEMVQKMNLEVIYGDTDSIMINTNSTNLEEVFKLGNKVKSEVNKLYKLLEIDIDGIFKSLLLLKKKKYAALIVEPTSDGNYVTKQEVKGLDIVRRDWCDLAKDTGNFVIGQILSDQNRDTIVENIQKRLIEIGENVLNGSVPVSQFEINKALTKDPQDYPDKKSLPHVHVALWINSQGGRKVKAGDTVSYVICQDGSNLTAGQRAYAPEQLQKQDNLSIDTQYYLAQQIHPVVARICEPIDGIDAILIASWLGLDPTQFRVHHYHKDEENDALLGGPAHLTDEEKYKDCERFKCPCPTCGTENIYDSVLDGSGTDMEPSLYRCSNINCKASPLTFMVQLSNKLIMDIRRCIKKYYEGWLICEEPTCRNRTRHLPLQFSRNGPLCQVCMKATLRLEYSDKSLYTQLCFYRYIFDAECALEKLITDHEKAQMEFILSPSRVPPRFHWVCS
The experiment in a line: DNA polymerase activity assay, calf pol α. In kind it is biochemical. Conditions: for Inhibitory effect on calf pol α activity: 50 μM of each compound, Figure 2. The method, then:
Pols from mammals, a fish (cherry salmon), an insect (fruit fly) and a plant (cauliflower) were purified, and prokaryotic pols and other DNA metabolic enzymes, such as T7 RNA polymerase, T4 polynucleotide kinase and bovine deoxyribonuclease I, were purchased as described in our previous report. The activities of all pols and other DNA metabolic enzymes were measured as described in previous reports.
The components of the pol assay were poly(dA)/oligo(dT)18 and dTTP as the DNA template-primer and 2′-deoxyribonucleoside 5′-triphosphate (dNTP) substrate, respectively. VK2, VK3, and their synthesized derivatives (i.e., MK-3, MK-2 and MK-1) were dissolved in dimethyl sulfoxide (DMSO) at various concentrations and sonicated for 30 s. The sonicated samples (4 μL) were mixed with 16 μL of each pol enzyme (final amount, 0.05 units) in 50 mM Tris-HCl (pH 7.5) containing 1 mM dithiothreitol, 50% glycerol and 0.1 mM EDTA, and kept at 0 °C for 10 min. These inhibitor–enzyme mixtures (8 μL) were added to 16 μL of each standard enzyme reaction mixture (50 mM Tris-HCl [pH 7.5], 1 mM dithiothreitol, 1 mM MgCl2, 15% glycerol, 10 μM poly(dA)/oligo(dT)18 and 10 μM [^3H]-dTTP), and incubation was carried out at 37 °C for 60 min, except for Taq pol, which was incubated at 74 °C for 60 min. Activity without the inhibitor was considered to be 100%, and the activity remaining at each concentration of inhibitor was determined relative to this value. One unit of pol activity was defined as the amount of enzyme that catalyzed the incorporation of 1 nmol dNTP (dTTP) into the synthetic DNA template-primer (poly(dA)/oligo(dT)18, A/T = 2/1) in 60 min at 37 °C under normal reaction conditions for each enzyme (scintillation counts: approximately 1 pmol of incorporated radioactive nucleotides = 100 cpm).

Experiment [2] relates to TPA-induced edema on mouse ear. In words: TPA-induced mouse ear inflammatory test. The format is in vivo. Conditions: 250 or 500 μg applied to ear 30 min before TPA (0.5 μg); edema evaluated after 7 h; Figure 3. Here is the method:
All animal studies were performed according to the guidelines outlined in the “Care and Use of Laboratory Animals” of Kobe University. The animals were anesthetized with pentobarbital before undergoing cervical dislocation. Female 8-week-old C57BL/6 mice that had been bred in-house with free access to food and water were used for all experiments. All of the mice were maintained under a 12-h light/dark cycle and housed at a room temperature of 25 °C.
The mouse inflammatory test was performed according to Gschwendt’s method. In brief, an acetone solution of the VK2 and VK3 intermediates (250 or 500 μg in 20 μL) or 20 μL of acetone as a vehicle control was applied to the inner part of the mouse ear. Thirty minutes after the test compound was applied, a TPA solution (0.5 μg/20 μL of acetone) was applied to the same part of the ear. To the other ear of the same mouse, methanol, followed by TPA solution, was applied as a control. After 7 h, a disk (6 mm diameter) was obtained from the ear and weighed. The inhibitory effect (IE) is presented as a ratio of the increase in weight of the ear disks: IE=[(TPA only)−(tested compound plus TPA)]/[(TPA only)−(vehicle)]×100

In the case of `CC(C)=CCC1=C(C)C(=O)c2ccccc2C1=O` [MK-1], the “Inhibitory effect on calf pol α activity” value in experiment [1] is “inhibited the activity”. In experiment [2], the “Anti-inflammatory activity toward TPA-induced edema on mouse ear” value is given as “suppressed inflammation”.

On to `CC(C)=CCC/C(C)=C/CC1=C(C)C(=O)c2ccccc2C1=O` [MK-2], for which the “Inhibitory effect on calf pol α activity” value in experiment [1] is “inhibited the activity”. Also, the IC50 in experiment [1] (B-family pol, read-out: IC50 Value of MK-2, Calf DNA polymerase α) amounted to 27.6 ± 1.6 µM. Besides, the “Anti-inflammatory activity toward TPA-induced edema on mouse ear” value in experiment [2] is “suppressed inflammation”.

For `CC(C)=CCC/C(C)=C/CC/C(C)=C/CC1=C(C)C(=O)c2ccccc2C1=O` [MK-3], the “Inhibitory effect on calf pol α activity” value in experiment [1] is on record as “inhibited the activity”. The “Anti-inflammatory activity toward TPA-induced edema on mouse ear” value in experiment [2] is “weak effect”.

As to `CC(C)=CCC/C(C)=C/CC/C(C)=C/CC/C(C)=C/CC1=C(C)C(=O)c2ccccc2C1=O` [MK-4, menaquinone 4, reference compound], the “Inhibitory effect on calf pol α activity” value in experiment [1] was “had no effect on pol activity”. Further, the “Anti-inflammatory activity toward TPA-induced edema on mouse ear” value in experiment [2] is listed as “weak effect”.

For orientation: IC50 means the point on the concentration scale where inhibition reaches its midpoint.

These data come from paper PMC3083694, “Effects of Intermediates between Vitamins K2 and K3 on Mammalian DNA Polymerase Inhibition and Anti-Inflammatory Activity” (International Journal of Molecular Sciences, 2011).
